Data set [1] in a line: Clearance in mouse at 10 mg/kg, po. The following applies: in vivo. The class given is ADME, organism-based.
Data set [2] can be described thus: AUC (0 to 24 hrs) in mouse at 10 mg/kg, po. The class given is ADME, organism-based. Details: time < 24 hr, route oral, dose 10 mg/kg. As to conditions: in vivo.
A short description of data set [3]: Cmax in mouse at 10 mg/kg, po. Format: ADME, organism-based. Also on record: route oral, dose 10 mg/kg. As to conditions: in vivo.
Data set [4] can be described thus: Oral bioavailability in mouse at 10 mg/kg. The class given is ADME, organism-based. The following applies: in vivo.
Data set [5] can be described thus: Volume of distribution at steady state in mouse at 10 mg/kg, po. Format: ADME, organism-based. As to conditions: in vivo.
Data set [6] is described as follows: Stability in human liver microsomes assessed as parent compound remaining after 10 mins. The class given is ADME, Microsome. The following applies: read-out: Stabilty. (In general: Microsomes from liver hold many membrane-bound enzymes, among them those of drug oxidation.)
Data set [7] in a line: Stability in mouse liver microsomes assessed as parent compound remaining after 10 mins. Format: ADME, Microsome. The following applies: read-out: Stabilty.
Data set [8] is described as follows: Stability in rat liver microsomes assessed as parent compound remaining after 10 mins. The class given is ADME, Microsome. The following applies: read-out: Stabilty.
The nature of data set [9]: Aqueous solubility of compound at pH 6.5. Format: physicochemical. The following applies: aqueous solution.
A short description of data set [10]: Volume of distribution at steady state in rat at 10 mg/kg, po. The following applies: in vivo. Format: ADME, organism-based.
Data set [11] is described as follows: Half life in human liver microsomes. Format: ADME, Microsome.
A short description of data set [12]: AUC (0 to 24 hrs) in dog at 10 mg/kg, po. Also on record: time < 24 hr, route oral, dose 10 mg/kg. The following applies: in vivo. Format: ADME, organism-based, Canis lupus familiaris.
A short description of data set [13]: Half life in dog liver microsomes. The class given is ADME, Canis lupus familiaris, Microsome.
Data set [14] in a line: Half life in rat liver microsomes. The class given is ADME, Microsome.
A short description of data set [15]: Cmax in rat at 10 mg/kg, po. The class given is ADME, organism-based. Details: route oral, dose 10 mg/kg. As to conditions: in vivo.
A short description of data set [16]: Clearance in dog at 10 mg/kg, po. Format: ADME, organism-based, Canis lupus familiaris. As to conditions: in vivo.
A short description of data set [17]: Volume of distribution at steady state in cynomolgus monkey at 7 mg/kg, po. Format: ADME, organism-based, Macaca fascicularis. The following applies: in vivo.
Data set [18] in a line: Clearance in rat at 10 mg/kg, po. The class given is ADME, organism-based. The following applies: in vivo.
Data set [19] can be described thus: Volume of distribution at steady state in dog at 10 mg/kg, po. The class given is ADME, organism-based, Canis lupus familiaris. As to conditions: in vivo.
Data set [20] can be described thus: AUC (0 to 24 hrs) in cynomolgus monkey at 7 mg/kg, po. The class given is ADME, organism-based, Macaca fascicularis. Also on record: time < 24 hr, route oral, dose 7 mg/kg. The following applies: in vivo.
Data set [21] is described as follows: Cmax in dog at 10 mg/kg, po. The following applies: in vivo. The class given is ADME, organism-based, Canis lupus familiaris. Details: route oral, dose 10 mg/kg.
Data set [22] can be described thus: Half life in mouse liver microsomes. The class given is ADME, Microsome.
A short description of data set [23]: Oral bioavailability in rat at 10 mg/kg. Format: ADME, organism-based. The following applies: in vivo.
Data set [24] is described as follows: Oral bioavailability in cynomolgus monkey at 7 mg/kg. Format: ADME, organism-based, Macaca fascicularis. The following applies: in vivo.
Data set [25] is described as follows: Oral bioavailability in dog at 10 mg/kg. Format: ADME, organism-based, Canis lupus familiaris. As to conditions: in vivo.
The nature of data set [26]: Clearance in cynomolgus monkey at 7 mg/kg, po. Format: ADME, organism-based, Macaca fascicularis. As to conditions: in vivo.
The nature of data set [27]: Half life in monkey liver microsomes. The class given is ADME, Macaca mulatta, Microsome. As to conditions: rhesus monkey.
A short description of data set [28]: Cmax in cynomolgus monkey at 7 mg/kg, po. The class given is ADME, organism-based, Macaca fascicularis. Details: route oral, dose 7 mg/kg. As to conditions: in vivo.
The nature of data set [29]: AUC (0 to 24 hrs) in rat at 10 mg/kg, po. Format: ADME, organism-based. Details: time < 24 hr, route oral, dose 10 mg/kg. As to conditions: in vivo.

Converted amounts (≈) assume the structure as drawn.

This note sets out measurements from ChEMBL document CHEMBL4765480 (J Med Chem, 2021).

Usually CL/F stands for clearance divided by bioavailability, as obtained after extravascular dosing. Broadly, the AUC(0-t) is exposure summed from dosing to a finite time, without extrapolation to infinity. What is called Cmax is the maximum level reached in the sampled fluid or tissue. In general, bioavailability refers to the share of a dose that reaches the circulation, judged against a reference dose that is usually intravenous. One may read the solubility as how much of the substance goes into solution per volume. The half-life is how long it takes for the measured level to halve.

`[2H]C([2H])([2H])NC(=O)c1nnc(NC(=O)C2CC2)cc1Nc1cccc(-c2cnc(C(=O)N(C)C)cn2)c1OC`: the CL/F in [1] was determined as 7.6 mL/min/kg. In data set [2], this compound had an AUC(0-t) at 24 h of 19 µM·h. In addition, in [3], the Cmax came out at 7.8 µM. Also, the bioavailability in data set [4] was 43%. Moreover, in data set [5], the Vdss is 1.5 L/kg.
As to `[2H]C([2H])([2H])NC(=O)c1nnc(NC(=O)C2CC2)cc1Nc1cccc(-c2ccncn2)c1OC`, the remaining at 10 min came to 48% in data set [6], 3% in data set [7] and 3% in data set [8].
With `[2H]C([2H])([2H])NC(=O)c1nnc(NC(=O)C2CC2)cc1Nc1cccc(-c2cnccn2)c1OC`, the remaining at 10 min in data set [6] worked out at 58%; in [7] it was 1%; in data set [8], 1%.
For the compound `[2H]C([2H])([2H])NC(=O)c1nnc(NC(=O)C2CC2)cc1Nc1cccc(-c2cccnn2)c1OC`, the remaining at 10 min was found to be 60% in [6], 0% in [7] and 8% in data set [8].
As for `[2H]C([2H])([2H])NC(=O)c1cnc(NC(=O)C2CC2)cc1Nc1cccc(-c2ncccn2)c1OC`, in data set [9], the solubility worked out at 32 µg/mL (≈ 75.9 µM).
Still for that read-out and setting: under `[2H]C([2H])([2H])NC(=O)c1nnc(NC(=O)C2CC2)cc1Nc1cccc(-c2ncc(C(C)(C)O)cn2)c1OC` stands 14 µg/mL (≈ 29.1 µM).
Take `[2H]C([2H])([2H])NC(=O)c1nnc(NC(=O)C2CC2)cc1Nc1cccc(-c2ncccn2)c1OC`: the CL/F in [1] was 7.9 mL/min/kg. In data set [2], this compound had an AUC(0-t) at 24 h of 15 µM·h. The concentration in data set [3] peaked (Cmax) at 5.4 µM. Besides, the remaining at 10 min in data set [6] came out at 100%; in [7] it was 78%; in data set [8], 77%. In [4], the bioavailability stood at 31%. Further, the solubility in data set [9] was < 1 µg/mL. Also, the Vdss in data set [5] was found to be 2.3 L/kg.
Consider `[2H]C([2H])([2H])NC(=O)c1nnc(NC(=O)C2CC2)cc1Nc1cccc(-c2cnc(C(C)(C)O)cn2)c1OC`, for which the CL/F in [1] was 5.3 mL/min/kg. Besides, the AUC(0-t) at 24 h in [2] was 26 µM·h. The Cmax in data set [3] came out at 6.1 µM. Further, the values for the remaining at 10 min in [6], in [7] and in data set [8] were 95%, 99% and 90%, respectively. In [4], this compound had a bioavailability of 41%. In data set [5], the Vdss is 3.4 L/kg.
As to `[2H]C([2H])([2H])NC(=O)c1nnc(NC(=O)C2CC2)cc1Nc1cccc(-c2ccccn2)c1OC`, the remaining at 10 min in data set [6] turned out to be 79%; in data set [7] it was 42%; in [8] it was 34%.
Consider `[2H]C([2H])([2H])NC(=O)c1cnc(NC(=O)C2CC2)cc1Nc1cccc(-c2ncc(F)cn2)c1OC` [BMS-986202], for which the Vdss was found to be 1.1 L/kg in [10], 7 L/kg in data set [17], 1.5 L/kg in data set [19] and 1.1 L/kg in data set [5]. The half-life is > 2 h in [11]; 1.48 h in data set [13]; > 2 h in [14]; > 2 h in data set [22]; > 2 h in data set [27]. For the same compound, the AUC(0-t) at 24 h in data set [12] is 126 µM·h; in data set [2] it was 65 µM·h; in [20], 130 µM·h; in data set [29], 77 µM·h. For the same compound, the CL/F stood at 3 mL/min/kg in [1], 1.8 mL/min/kg in data set [16], 3.6 mL/min/kg in data set [18] and 2.3 mL/min/kg in data set [26]. In addition, the Cmax amounted to 13 µM in data set [15], 13 µM in data set [3], 14 µM in [21] and 11 µM in data set [28]. Further, the bioavailability is 62% in data set [4], 72% in [23], 100% in data set [24] and 100% in [25].
For the compound `[2H]C([2H])([2H])NC(=O)c1nnc(NC(=O)C2CC2)cc1Nc1cccc(-c2ncn(C)n2)c1OC` [DEUCRAVACITINIB], the remaining at 10 min was determined as 98% in data set [6], 89% in data set [7] and 100% in data set [8].
